Assay results reported in patent US20230150978A1, “QUINAZOLINONE DERIVATIVES AND USES THEREOF FOR TREATING A CANCER” (ENYO PHARMA, priority 2020, published 2023).
Like-named read-outs stand apart in the source and are kept apart here.

What was measured:
Calreticulin = Calreticulin release (ER to plasma membrane translocation) screen, Nano-Glo HiBiT extracellular detection; format: cell-based; conditions: extracellular luminescence, read-out: CalR EC50
Protocol: (§1) Construction of pBiT3.1-Calreticulin Plasmid Calreticulin derived from pCMV6-AC plasmid (ref. SC320287, Origene) was amplified by PCR using the following set of primers: Seq ID No 3: forward, 5′-[…]-3′; Seq ID No 4: reverse, 5′-[…]-3′. The PCR fragment was subsequently digested by EcoRI and XhoI (R3101S and R0146S respectively, New England Biolabs) and inserted between the EcoRI and XhoI sites in the plasmid pBiT3.1-C(ref. N237A, Promega). The resulting plasmid (pBiT3.1-Calreticulin) was grown in NEB10-beta competent E. coli (ref. C3019I, New England Biolabs) and purified using the NucleoBond Xtra Midi Kit (ref. 740410, Macherey-Nagel).
Construction of Calreticulin Reporter Cell Line
(§2) pBiT3.1-Calreticulin was transfected in MDA-MB-231 cells (ref. ATCC HTB-2) using Lipofectamine 2000 reagent (ref. 11668, Invitrogen). Transfected cells were selected for blasticidin resistance (15 μg/ml, ref. Al 113903 Gibco) in medium containing DMEM 1× (ref. 1995065, Gibco) with 1% penicillin and streptomycin, and 10% fetal bovine serum.
Screen for Calreticulin-ER to Plasma Membrane Translocating Drugs
(§3) MDA-MB-231 cells stably expressing Calreticulin-HiBiT (10^4 cells/well) were seeded into white 96-well plates (ref.3917, Corning) and allowed to recover for 24h. […] Mitoxantrone dihydrochloride (ref. M6545, Sigma-Aldrich) was used as a positive control. Extracellular translocation of Calreticulin was measured using the Nano-Glo HiBiT extracellular detection system (ref. N2422, Promega). Nano-Glo HiBiT Extracellular Reagent was prepared in advance, added to the well and incubated 10 min.
Luminescence of the extracellular Calreticulin-HiBiT was quantified using the Spark 20M spectrofluorimeter (TECAN).

HMGB1 = HMGB1 release screen, Nano-Glo HiBiT extracellular detection; format: cell-based; conditions: extracellular luminescence
Protocol: Construction of pBiT3.1-HMGB1 Plasmid
as §1, with “HMGB1” for “Construction of pBiT3.1-Calreticulin Plasmid Calreticulin”, “pCMV6-AC-GFP” for “pCMV6-AC”, “RG205918,” for “SC320287,”, “1:” for “3:”, “2:” for “4:”, “(pBiT3.1-HMGB1)” for “(pBiT3.1-Calreticulin)”
Construction of HMGB1 Reporter Cell Line
as §2, with “pBiT3.1-HMGB1” for “pBiT3.1-Calreticulin”
Screen for HMGB1-Releasing Drugs
as §3, with “HMGB1-HiBiT” for “Calreticulin-HiBiT”, “HMGB1” for “Calreticulin”, “min. Luminescence of the extracellular HMGB1-HiBiT was quantified using the Spark 20M spectrofluorimeter (TECAN)” for “min.”

[1] = Homo sapiens, MDA-MB-231, MDA-MB-231 cells stably expressing Calreticulin-HiBiT
[2] = Homo sapiens, MDA-MB-231, MDA-MB-231 cells stably expressing HMGB1-HiBiT
[3] = MDA-MB-231 cells stably expressing Calreticulin-HiBiT
[4] = MDA-MB-231 cells stably expressing HMGB1-HiBiT

COc1cccc2c1CCCN2Cc1nc2ccc(Cl)cc2c(=O)[nH]1 [Ex. #52, 6-chloro-2-[(5-methoxy-3,4-dihydro-2H-quinolin-1-yl)methyl]-3H-quinazolin-4-one]
EC50 (Calreticulin; [1]): 1260 nM | EC50 (HMGB1; [2]): 1360 nM

COc1ccc2nc(CN3CCc4c(Br)cccc4C3)[nH]c(=O)c2c1 [Ex. #18, 2-[(5-bromo-3,4-dihydro-1H-isoquinolin-2-yl)methyl]-6-methoxy-3H-quinazolin-4-one]
EC50 (Calreticulin; [1]): 2060 nM | EC50 (HMGB1; [2]): 9360 nM

COc1ccc2nc(CN3CC(C)(C)c4ccccc43)[nH]c(=O)c2c1 [Ex. #2, 2-[(3,3-dimethylindolin-1-yl)methyl]-6-methoxy-3H-quinazolin-4-one]
EC50 (Calreticulin; [1]): 400 nM | EC50 (HMGB1; [2]): 600 nM

COc1ccc2nc(CN3CC(C)c4ccccc43)[nH]c(=O)c2c1 (single isomer, unassigned) [Ex. #5, 6-methoxy-2-[(3-methylindolin-1-yl)methyl]-3H-quinazolin-4-one]
EC50 (Calreticulin; [3]): 2310 nM | EC50 (HMGB1; [4]): 3460 nM

Cc1ccc2c(c1)CN(Cc1nc3ccc(Cl)cc3c(=O)[nH]1)CC2 [Ex. #60, 6-chloro-2-[(7-methyl-3,4-dihydro-1H-isoquinolin-2-yl)methyl]-3H-quinazolin-4-one]
EC50 (Calreticulin; [1]): 870 nM | EC50 (HMGB1; [2]): 9360 nM

COc1ccc2c(c1)N(Cc1nc3ccc(Cl)cc3c(=O)[nH]1)CCC2 [Ex. #55, 6-chloro-2-[(7-methoxy-3,4-dihydro-2H-quinolin-1-yl)methyl]-3H-quinazolin-4-one]
EC50 (Calreticulin; [1]): 11300 nM | EC50 (HMGB1; [2]): 10800 nM

COc1ccc2c(=O)[nH]c(CN3CCc4ccccc43)nc2c1 [Ex. #86, 2-(indolin-1-ylmethyl)-7-methoxy-3H-quinazolin-4-one]
EC50 (Calreticulin; [1]): 2560 nM | EC50 (HMGB1; [2]): 3860 nM

O=c1[nH]c(CN2CCc3ccccc32)nc2cc(C(F)(F)F)ccc12 [Ex. #91, 2-(indolin-1-ylmethyl)-7-(trifluoromethyl)-3H-quinazolin-4-one]
EC50 (Calreticulin; [1]): 8110 nM | EC50 (HMGB1; [2]): 10100 nM

COc1cc2c(=O)[nH]c(CN3CCc4ccccc43)nc2cc1F [Ex. #76, 7-fluoro-2-(indolin-1-ylmethyl)-6-methoxy-3H-quinazolin-4-one]
EC50 (Calreticulin; [1]): 292 nM | EC50 (HMGB1; [2]): 594 nM

CC1CN(Cc2nc3ccc(Cl)cc3c(=O)[nH]2)c2ccccc21 (single isomer, unassigned) [Ex. #38, 6-chloro-2-[(3-methylindolin-1-yl)methyl]-3H-quinazolin-4-one]
EC50 (Calreticulin; [3]): 499 nM | EC50 (HMGB1; [4]): 721 nM

O=c1[nH]c(CN2CCc3ccccc32)nc2ccc(N3CCCC3)cc12 [Ex. #102, 2-(indolin-1-ylmethyl)-6-pyrrolidin-1-yl-3H-quinazolin-4-one]
EC50 (Calreticulin; [1]): 595 nM | EC50 (HMGB1; [2]): 1370 nM

O=c1[nH]c(CN2CCc3ccccc32)nc2ccc(N3CCC(O)C3)cc12 (centres unmarked) [Ex. #105, 6-(3-hydroxypyrrolidin-1-yl)-2-(indolin-1-ylmethyl)-3H-quinazolin-4-one]
EC50 (Calreticulin; [1]): 9160 nM | EC50 (HMGB1; [2]): 11700 nM

O=c1[nH]c(CN2CCc3ccccc32)nc2cc(Cl)ccc12 [Ex. #89, 7-chloro-2-(indolin-1-ylmethyl)-3H-quinazolin-4-one]
EC50 (Calreticulin; [1]): 8260 nM | EC50 (HMGB1; [2]): 6260 nM

COc1ccc2nc(CN3CCc4c(cccc4NS(C)(=O)=O)C3)[nH]c(=O)c2c1 [Ex. #21, N-[2-[(6-methoxy-4-oxo-3H-quinazolin-2-yl)methyl]-3,4-dihydro-1H-isoquinolin-5-yl]methanesulfonamide]
EC50 (Calreticulin; [1]): 3960 nM | EC50 (HMGB1; [2]): 11200 nM

O=c1[nH]c(CN2CCOc3ccccc32)nc2ccc(Cl)cc12 [Ex. #57, 6-chloro-2-(2,3-dihydro-1,4-benzoxazin-4-ylmethyl)-3H-quinazolin-4-one]
EC50 (Calreticulin; [1]): 14200 nM | EC50 (HMGB1; [2]): 11900 nM

O=c1[nH]c(CN2CC3(CCCC3)c3ccccc32)nc2ccc(Cl)cc12 [Ex. #42, 6-chloro-2-(spiro[cyclopentane-1,3′-indoline]-1′-ylmethyl)-3H-quinazolin-4-one]
EC50 (Calreticulin; [1]): 1760 nM | EC50 (HMGB1; [2]): 3550 nM

O=c1[nH]c(CN2CCc3ccccc32)nc2ccc(N3CCC3)cc12 [Ex. #100, 6-(azetidin-1-yl)-2-(indolin-1-ylmethyl)-3H-quinazolin-4-one]
EC50 (Calreticulin; [1]): 230 nM | EC50 (HMGB1; [2]): 250 nM

COc1cc2c(=O)[nH]c(CN3CC(C)(C)c4ccccc43)nc2cc1Cl [Ex. #93, 7-chloro-2-[(3,3-dimethylindolin-1-yl)methyl]-6-methoxy-3H-quinazolin-4-one]
EC50 (Calreticulin; [1]): 97.5 nM | EC50 (HMGB1; [2]): 150 nM

COc1ccc2nc(CN3CCc4cccc(OC)c4C3)[nH]c(=O)c2c1 [Ex. #19, 6-methoxy-2-[(8-methoxy-3,4-dihydro-1H-isoquinolin-2-yl)methyl]-3H-quinazolin-4-one]
EC50 (Calreticulin; [1]): 7360 nM | EC50 (HMGB1; [2]): 10200 nM

COc1ccc2nc(CN3CCCc4ccccc43)[nH]c(=O)c2c1 [Ex. #15, 2-(3,4-dihydro-2H-quinolin-1-ylmethyl)-6-methoxy-3H-quinazolin-4-one]
EC50 (Calreticulin; [1]): 1060 nM | EC50 (HMGB1; [2]): 3340 nM

COc1cc2nc(CN3CCc4ccccc43)[nH]c(=O)c2cc1OC [Ex. #83, 2-(indolin-1-ylmethyl)-6,7-dimethoxy-3H-quinazolin-4-one]
EC50 (Calreticulin; [1]): 1610 nM | EC50 (HMGB1; [2]): 1440 nM

O=c1[nH]c(CN2CCCOc3ccccc32)nc2ccc(Cl)cc12 [Ex. #64, 6-chloro-2-(3,4-dihydro-2H-1,5-benzoxazepin-5-ylmethyl)-3H-quinazolin-4-one]
EC50 (Calreticulin; [1]): 2460 nM | EC50 (HMGB1; [2]): 5310 nM

Cc1ccc2c(c1)N(Cc1nc3ccc(Cl)cc3c(=O)[nH]1)CC2 [Ex. #45, 6-chloro-2-[(6-methylindolin-1-yl)methyl]-3H-quinazolin-4-one]
EC50 (Calreticulin; [1]): 1210 nM | EC50 (HMGB1; [2]): 4660 nM

CN(C)c1ccc2nc(CN3CCc4ccccc43)[nH]c(=O)c2c1 [Ex. #73, 6-(dimethylamino)-2-(indolin-1-ylmethyl)-3H-quinazolin-4-one]
EC50 (Calreticulin; [1]): 253 nM | EC50 (HMGB1; [2]): 275 nM

COc1ccc2nc(CN3CCc4c(F)cccc4C3)[nH]c(=O)c2c1 [Ex. #124, 2-[(5-fluoro-3,4-dihydro-1H-isoquinolin-2-yl)methyl]-6-methoxy-3H-quinazolin-4-one]
EC50 (Calreticulin; [1]): 2160 nM | EC50 (HMGB1; [2]): 13500 nM

Cc1cccc2c1N(Cc1nc3ccc(Cl)cc3c(=O)[nH]1)CC2 [Ex. #44, 6-chloro-2-[(7-methylindolin-1-yl)methyl]-3H-quinazolin-4-one]
EC50 (Calreticulin; [1]): 1260 nM | EC50 (HMGB1; [2]): 1330 nM

Cc1cccc2c1CCCN2Cc1nc2ccc(Cl)cc2c(=O)[nH]1 [Ex. #53, 6-chloro-2-[(5-methyl-3,4-dihydro-2H-quinolin-1-yl)methyl]-3H-quinazolin-4-one]
EC50 (Calreticulin; [1]): 730 nM | EC50 (HMGB1; [2]): 2510 nM

CC1CN(Cc2nc3ccc(Cl)cc3c(=O)[nH]2)c2ccccc21 (single isomer, unassigned) [Ex. #39, 6-chloro-2-[(3-methylindolin-1-yl)methyl]-3H-quinazolin-4-one]
EC50 (Calreticulin; [3]): 8060 nM | EC50 (HMGB1; [4]): 10400 nM

CN1CCN(Cc2nc3ccc(Cl)cc3c(=O)[nH]2)c2ccccc21 [Ex. #128, 6-chloro-2-[(4-methyl-2,3-dihydroquinoxalin-1-yl)methyl]-3H-quinazolin-4-one]
EC50 (Calreticulin; [1]): 10500 nM | EC50 (HMGB1; [2]): 13300 nM

O=c1[nH]c(CN2CCc3cc(F)ccc32)nc2ccc(Cl)cc12 [Ex. #47, 6-chloro-2-[(5-fluoroindolin-1-yl)methyl]-3H-quinazolin-4-one]
EC50 (Calreticulin; [1]): 2180 nM | EC50 (HMGB1; [2]): 3980 nM

O=c1[nH]c(CN2CCc3ccccc32)nc2ccc(C3CC3)cc12 [Ex. #99, 6-cyclopropyl-2-(indolin-1-ylmethyl)-3H-quinazolin-4-one]
EC50 (Calreticulin; [1]): 97.5 nM | EC50 (HMGB1; [2]): 97.5 nM
